Assay results reported in patent US12268210B2, “Performic acid on-site generator and formulator” (ECOLAB USA INC., priority 2015, dated 2025).

Legend:
[1] = cited from earlier work; for half-life: shelf life stability, order of magnitude
[2] = tested on: SRB or APB populations; assay: Micro efficacy of field-generated PFA at a salt water disposal well (serial dilution bug bottles); type: cell-based; conditions: for log reduction in microbial population: compared to incoming water, serial dilution bug bottles selecting for SRB or APB
Description: The peroxyformic acid generator according to the embodiments depicted in the figures having multiple inlets to provide formic acid blend (formic acid, catalyst and corrosion inhibitor) as well as hydrogen peroxide was evaluated under field conditions at a scale-up volume. The generator was used at a salt water disposal well.
The performance of the chemistry generated in the field according to Example 5 was evaluated for micro efficacy. PFA dosed at 250 ppm (˜25 ppm active) indicates at least reduction in microbial numbers equivalent to 2-3 logs, as shown in FIG. 13. In the figures the GB refers to site of treatment (gun barrel) measurement, whereas SWD refers to the disposal water measurement for micro efficacy.
The percentage reduction of microbial numbers compared to incoming water was also evaluated. Microbial numbers were monitored using traditional serial dilution bug bottles that select for SRB or APB populations.

Row | Compound | half-life [1] | time to decompose into carbon dioxide and water ([1]; ambient temperature and pressure) | reduction in microbial numbers ([2]; PFA dosed at 250 ppm (~25 ppm active), GB (gun barrel) and SWD (disposal water) measurements, FIG. 13) | log reduction in microbial population ([2]; all results) | log reduction in microbial population ([2]; in some case)
1 | CC(=O)OO [peracetic acid, reference compound] | weeks to months | – | – | – | –
2 | performic acid [PFA] | minutes to hours | within a few hours | 2-3 logs | 2-3 log | 7 log
